Data reported in ChEMBL document CHEMBL4715855, “N-phenyl ureidobenzenesulfonates, a novel class of promising human dihydroorotate dehydrogenase inhibitors” (Bioorg Med Chem, 2020).

How the values were obtained:
Assay type in all cases: functional, cell-based
[1] = system: M21; assay: Antiproliferative activity against human M21 cells assessed as cell growth inhibition measured after 48 hrs by SRB assay; conditions: M21, 48 h
[2] = system: ACHN; assay: Antiproliferative activity against human ACHN cells assessed as cell growth inhibition measured after 48 hrs by sulforhodamine B assay
[3] = system: Malme-3M; assay: Antiproliferative activity against human Malme-3M cells assessed as cell growth inhibition measured after 48 hrs by sulforhodamine B assay
[4] = system: SN12C; assay: Antiproliferative activity against human SN12C cells assessed as cell growth inhibition measured after 48 hrs by sulforhodamine B assay
[5] = system: UO-31; assay: Antiproliferative activity against human UO-31 cells assessed as cell growth inhibition measured after 48 hrs by sulforhodamine B assay; conditions: UO-31, 48 h
[6] = system: OVCAR-3; assay: Antiproliferative activity against human OVCAR-3 cells assessed as cell growth inhibition measured after 48 hrs by sulforhodamine B assay; conditions: OVCAR-3, 48 h
[7] = system: IGROV-1; assay: Antiproliferative activity against human IGROV-1 cells assessed as cell growth inhibition measured after 48 hrs by sulforhodamine B assay; conditions: IGROV-1, 48 h
[8] = system: Panel leukemia (Carcinoma cell lines); assay: Antiproliferative activity against human Panel leukemia (Carcinoma cell lines) assessed as cell growth inhibition measured after 48 hrs by SRB assay
[9] = system: SK-MEL-2; assay: Antiproliferative activity against human SK-MEL-2 cells assessed as cell growth inhibition measured after 48 hrs by sulforhodamine B assay; conditions: SK-MEL-2, 48 h
[10] = system: NCI-H522; assay: Antiproliferative activity against human NCI-H522 cells assessed as cell growth inhibition measured after 48 hrs by sulforhodamine B assay; conditions: NCI-H522, 48 h
[11] = system: HT-1080; assay: Antiproliferative activity against human HT-1080 cells assessed as cell growth inhibition measured after 48 hrs by SRB assay; conditions: HT-1080, 48 h
[12] = system: COLO 205; assay: Antiproliferative activity against human COLO 205 cells assessed as cell growth inhibition measured after 48 hrs by sulforhodamine B assay; conditions: COLO 205, 48 h
[13] = system: M21; assay: Antiproliferative activity against human M21 cells assessed as cell growth inhibition measured after 48 hrs in presence of uridine by SRB assay; conditions: M21, 48 h
[14] = system: BT-549; assay: Antiproliferative activity against human BT-549 cells assessed as cell growth inhibition measured after 48 hrs by sulforhodamine B assay; conditions: BT-549, 48 h
[15] = system: NCI-H322M; assay: Antiproliferative activity against human NCI-H322M cells assessed as cell growth inhibition measured after 48 hrs by sulforhodamine B assay
[16] = system: T47D; assay: Antiproliferative activity against human T47D cells assessed as cell growth inhibition measured after 48 hrs by sulforhodamine B assay
[17] = system: RPMI-8226; assay: Antiproliferative activity against human RPMI-8226 cells assessed as cell growth inhibition measured after 48 hrs by sulforhodamine B assay; conditions: RPMI-8226, 48 h
[18] = system: SR; assay: Antiproliferative activity against human SR cells assessed as cell growth inhibition measured after 48 hrs by sulforhodamine B assay
[19] = system: OVCAR-4; assay: Antiproliferative activity against human OVCAR-4 cells assessed as cell growth inhibition measured after 48 hrs by sulforhodamine B assay; conditions: OVCAR-4, 48 h
[20] = system: HCC 2998; assay: Antiproliferative activity against human HCC 2998 cells assessed as cell growth inhibition measured after 48 hrs by sulforhodamine B assay; conditions: HCC 2998, 48 h
[21] = system: K562; assay: Antiproliferative activity against human K562 cells assessed as cell growth inhibition incubated for 48 hrs by sulforhodamine B assay; conditions: K562, 48 h
[22] = system: M14; assay: Antiproliferative activity against human M14 cells assessed as cell growth inhibition measured after 48 hrs by sulforhodamine B assay; conditions: M14, 48 h
[23] = system: NCI/ADR-RES; assay: Antiproliferative activity against human NCI/ADR-RES cells assessed as cell growth inhibition measured after 48 hrs by sulforhodamine B assay
[24] = system: SW-620; assay: Antiproliferative activity against human SW-620 cells assessed as cell growth inhibition measured after 48 hrs by sulforhodamine B assay; conditions: SW-620, 48 h
[25] = system: DU-145; assay: Antiproliferative activity against human DU-145 cells assessed as cell growth inhibition measured after 48 hrs by sulforhodamine B assay; conditions: DU-145, 48 h
[26] = system: Hs-578T; assay: Antiproliferative activity against human Hs-578T cells assessed as cell growth inhibition measured after 48 hrs by sulforhodamine B assay
[27] = system: HCT-116; assay: Antiproliferative activity against human HCT-116 cells assessed as cell growth inhibition measured after 48 hrs by sulforhodamine B assay; conditions: HCT-116, 48 h
[28] = system: LOX IMVI; assay: Antiproliferative activity against human LOX IMVI cells assessed as cell growth inhibition measured after 48 hrs by sulforhodamine B assay
[29] = system: NCI-H460; assay: Antiproliferative activity against human NCI-H460 cells assessed as cell growth inhibition measured after 48 hrs by sulforhodamine B assay; conditions: NCI-H460, 48 h
[30] = system: HOP-92; assay: Antiproliferative activity against human HOP-92 cells assessed as cell growth inhibition measured after 48 hrs by sulforhodamine B assay; conditions: HOP-92, 48 h
[31] = system: MCF7; assay: Antiproliferative activity against human MCF7 cells assessed as cell growth inhibition measured after 48 hrs in presence of uridine by SRB assay; conditions: MCF7, 48 h
[32] = system: TK-10; assay: Antiproliferative activity against human TK-10 cells assessed as cell growth inhibition measured after 48 hrs by sulforhodamine B assay; conditions: TK-10, 48 h
[33] = system: U-251; assay: Antiproliferative activity against human U-251 cells assessed as cell growth inhibition measured after 48 hrs by sulforhodamine B assay; conditions: U-251, 48 h
[34] = system: SK-OV-3; assay: Antiproliferative activity against human SK-OV-3 cells assessed as cell growth inhibition measured after 48 hrs by sulforhodamine B assay; conditions: SK-OV-3, 48 h

- IC50 [2]: 1.58 µM
- IC50 [6]: 6.61 µM
- IC50 [8]: 0.81 µM
- IC50 [9]: 16.2 µM
- IC50 [10]: 1.32 µM
- IC50 [11]: 0.45 µM
- IC50 [12]: 2.51 µM
- IC50 [14]: 11.7 µM
- IC50 [15]: 12.9 µM
- IC50 [16]: 16.2 µM
- IC50 [17]: 1.38 µM
- IC50 [19]: 22.4 µM
- IC50 [20]: 17 µM
- IC50 [21]: 0.282 µM
- IC50 [24]: 2.75 µM
- IC50 [25]: 1.23 µM
- IC50 [27]: 0.575 µM
- IC50 [29]: 0.427 µM
- IC50 [31]: 18 µM
- IC50 [33]: 0.617 µM
- IC50 [34]: 12.6 µM
SMILES: CCNC(=O)Nc1ccc(S(=O)(=O)Oc2ccccc2CC)cc1
- IC50 [1]: 3 µM
- IC50 [3]: 17.8 µM
- IC50 [4]: 7.24 µM
- IC50 [5]: 6.03 µM
- IC50 [7]: 5.89 µM
- IC50 [13]: 30 µM
- IC50 [18]: 0.741 µM
- IC50 [22]: 4.17 µM
- IC50 [23]: 3.55 µM
- IC50 [26]: 11.2 µM
- IC50 [28]: 0.417 µM
- IC50 [30]: 6.61 µM
- IC50 [32]: 13.2 µM
